Reference: article PMC5218480 (PLoS ONE, 2017)

Test system: MV-4-11 cells
Test: Gene expression microarray analysis (Affymetrix PrimeView) and GSEA
Format: cell-based, human
Parameters: RFU PODN (11730768_x_at) / Fold change /veh PODN (11730768_x_at) / RFU LINC00158 (11744669_a_at) / Fold change /veh LINC00158 (11744669_a_at) / RFU DUSP10 (11751237_a_at) / Fold change /veh DUSP10 (11751237_a_at) / RFU ID3 (11757404_x_at) / Fold change /veh ID3 (11757404_x_at) / RFU PLEKHG5 (11737974_s_at) / Fold change /veh PLEKHG5 (11737974_s_at) / RFU LRRC4B (11730491_at) / Fold change /veh LRRC4B (11730491_at) / RFU GIMAP4 (11747438_a_at) / Fold change /veh GIMAP4 (11747438_a_at) / RFU KRT8 (11758183_x_at) / Fold change /veh KRT8 (11758183_x_at) / RFU CNN1 (11734310_a_at) / Fold change /veh CNN1 (11734310_a_at) / RFU VPS37D (11726825_at) / Fold change /veh VPS37D (11726825_at) / RFU C10orf10 (11716522_x_at) / Fold change /veh C10orf10 (11716522_x_at) / RFU KIR2DL2 /// KIR2DL4 /// KIR2DL5A /// KIR2DL5B /// KIR2DS1 /// KIR2DS2 /// KIR2DS3 /// KIR2DS4 /// KIR3DL3 /// KIR3DL3 /// KIR3DS1 (11738374_at) / Fold change /veh KIR2DL2 /// KIR2DL4 /// KIR2DL5A /// KIR2DL5B /// KIR2DS1 /// KIR2DS2 /// KIR2DS3 /// KIR2DS4 /// KIR3DL3 /// KIR3DL3 /// KIR3DS1 (11738374_at) / RFU C1QL1 (11718748_at) / Fold change /veh C1QL1 (11718748_at) / RFU TMPRSS4 (11747572_a_at) / Fold change /veh TMPRSS4 (11747572_a_at) / RFU HAMP (11756126_x_at) / Fold change /veh HAMP (11756126_x_at) / RFU RNFT2 (11725882_a_at) / Fold change /veh RNFT2 (11725882_a_at) / RFU NR4A2 (11747474_a_at) / Fold change /veh NR4A2 (11747474_a_at) / RFU ABCC12 (11746883_a_at) / Fold change /veh ABCC12 (11746883_a_at) / RFU TMEM136 (11760407_x_at) / Fold change /veh TMEM136 (11760407_x_at) / RFU CLDN22 /// WWC2 (11732394_at) / Fold change /veh CLDN22 /// WWC2 (11732394_at) / RFU HLA-DPB1 (11760878_x_at) / Fold change /veh HLA-DPB1 (11760878_x_at) / RFU SPINT1 (11716480_a_at) / Fold change /veh SPINT1 (11716480_a_at) / RFU GAP43 (11754022_s_at) / Fold change /veh GAP43 (11754022_s_at) / RFU A4GNT (11735810_at) / Fold change /veh A4GNT (11735810_at) / RFU PRB3 (11715151_x_at) / Fold change /veh PRB3 (11715151_x_at) / RFU TUBB4B (11761932_at) / Fold change /veh TUBB4B (11761932_at) / RFU CAPN14 (11732068_a_at) / Fold change /veh CAPN14 (11732068_a_at) / RFU TMCC2 (11721928_a_at) / Fold change /veh TMCC2 (11721928_a_at) / RFU IRGQ (11745062_a_at) / Fold change /veh IRGQ (11745062_a_at) / RFU FAM174B (11720279_a_at) / Fold change /veh FAM174B (11720279_a_at) / RFU TMPRSS4 (11748680_a_at) / Fold change /veh TMPRSS4 (11748680_a_at) / RFU FAM212B (11763350_a_at) / Fold change /veh FAM212B (11763350_a_at) / RFU PLEKHG5 (11743358_a_at) / Fold change /veh PLEKHG5 (11743358_a_at) / RFU ZSCAN30 (11745921_a_at) / Fold change /veh ZSCAN30 (11745921_a_at) / RFU CMKLR1 (11741424_a_at) / Fold change /veh CMKLR1 (11741424_a_at) / RFU LOC101060620 /// MAPK8IP1 (11723275_at) / Fold change /veh LOC101060620 /// MAPK8IP1 (11723275_at) / RFU SPTSSB (11747773_x_at) / Fold change /veh SPTSSB (11747773_x_at) / RFU PRSS12 (11739890_at) / Fold change /veh PRSS12 (11739890_at) / RFU BIN1 (11741810_x_at) / Fold change /veh BIN1 (11741810_x_at) / RFU WNT11 (11732464_a_at) / Fold change /veh WNT11 (11732464_a_at) / RFU C10orf10 (11716521_a_at) / Fold change /veh C10orf10 (11716521_a_at) / RFU C5orf56 (11738089_at) / Fold change /veh C5orf56 (11738089_at) / RFU CYB561 (11721691_x_at) / Fold change /veh CYB561 (11721691_x_at) / RFU ANKRD19P (11752326_a_at) / Fold change /veh ANKRD19P (11752326_a_at) / RFU OR2T12 /// OR2T33 /// OR2T8 (11738714_s_at) / Fold change /veh OR2T12 /// OR2T33 /// OR2T8 (11738714_s_at) / RFU VCAN (11748164_a_at) / Fold change /veh VCAN (11748164_a_at) / RFU JSRP1 (11732532_at) / Fold change /veh JSRP1 (11732532_at) / RFU KRTAP10-11 (11738290_x_at) / Fold change /veh KRTAP10-11 (11738290_x_at) / RFU MYO3A (11730013_a_at) / Fold change /veh MYO3A (11730013_a_at) / RFU EBF3 (11725865_a_at) / Fold change /veh EBF3 (11725865_a_at) / RFU CAMK2N1 (11719241_x_at) / Fold change /veh CAMK2N1 (11719241_x_at) / RFU C5orf56 (11738088_a_at) / Fold change /veh C5orf56 (11738088_a_at) / RFU OLFML3 (11715873_a_at) / Fold change /veh OLFML3 (11715873_a_at) / RFU LOC100653217 /// NTM (11731650_a_at) / Fold change /veh LOC100653217 /// NTM (11731650_a_at) / RFU MAPK11 (11762145_a_at) / Fold change /veh MAPK11 (11762145_a_at) / RFU FIZ1 (11724087_x_at) / Fold change /veh FIZ1 (11724087_x_at) / RFU OASL (11726364_x_at) / Fold change /veh OASL (11726364_x_at) / RFU SOX15 (11748057_x_at) / Fold change /veh SOX15 (11748057_x_at) / RFU CD79A (11719716_a_at) / Fold change /veh CD79A (11719716_a_at) / RFU HIST1H1D (11736915_at) / Fold change /veh HIST1H1D (11736915_at) / RFU CASKIN2 (11723855_a_at) / Fold change /veh CASKIN2 (11723855_a_at) / RFU LOC730098 (11760151_x_at) / Fold change /veh LOC730098 (11760151_x_at) / RFU OR4N2 (11742367_at) / Fold change /veh OR4N2 (11742367_at) / RFU PRRT2 (11749266_a_at) / Fold change /veh PRRT2 (11749266_a_at) / RFU SNX32 (11753110_a_at) / Fold change /veh SNX32 (11753110_a_at) / RFU CDHR5 (11726645_a_at) / Fold change /veh CDHR5 (11726645_a_at) / RFU RCAN1 (11760418_a_at) / Fold change /veh RCAN1 (11760418_a_at) / RFU FAM167A (11723789_a_at) / Fold change /veh FAM167A (11723789_a_at) / RFU FAM26E (11764081_at) / Fold change /veh FAM26E (11764081_at) / RFU ISYNA1 (11749810_s_at) / Fold change /veh ISYNA1 (11749810_s_at) / RFU ACY1 (11761880_at) / Fold change /veh ACY1 (11761880_at) / RFU 11764098_at / Fold change /veh 11764098_at / RFU SAMD14 (11745864_x_at) / Fold change /veh SAMD14 (11745864_x_at) / RFU NPB (11741838_a_at) / Fold change /veh NPB (11741838_a_at) / RFU TMPRSS6 (11731388_a_at) / Fold change /veh TMPRSS6 (11731388_a_at) / RFU KRTAP10-2 (11738614_at) / Fold change /veh KRTAP10-2 (11738614_at) / RFU ARHGAP8 /// PRR5-ARHGAP8 (11727945_x_at) / Fold change /veh ARHGAP8 /// PRR5-ARHGAP8 (11727945_x_at) / RFU KRTAP5-7 /// NADSYN1 (11734609_at) / Fold change /veh KRTAP5-7 /// NADSYN1 (11734609_at) / RFU RASL12 (11751679_a_at) / Fold change /veh RASL12 (11751679_a_at) / RFU CDKN2B (11736163_a_at) / Fold change /veh CDKN2B (11736163_a_at) / RFU PRF1 (11729649_at) / Fold change /veh PRF1 (11729649_at) / RFU, ZNF638 /// ZNF638-IT1 / Fold change vs veh, ZNF638 /// ZNF638-IT1 / RFU, PANK3 / Fold change vs veh, PANK3 / RFU, SH3YL1 / Fold change vs veh, SH3YL1 / RFU, ZEB2 / Fold change vs veh, ZEB2 / RFU, NRIP1 / Fold change vs veh, NRIP1 / RFU, PTTG1IP / Fold change vs veh, PTTG1IP / RFU, CAPN2 / Fold change vs veh, CAPN2 / RFU, MED14 / Fold change vs veh, MED14 / RFU, SNORA58 / Fold change vs veh, SNORA58 / RFU, C1orf63 / Fold change vs veh, C1orf63 / RFU, LRRFIP1 / Fold change vs veh, LRRFIP1 / RFU, NDUFAF7 / Fold change vs veh, NDUFAF7 / RFU, SLC12A2 / Fold change vs veh, SLC12A2 / RFU, IBTK / Fold change vs veh, IBTK / RFU, ESF1 / Fold change vs veh, ESF1 / Fold change vs veh, TMEM50B / RFU, TAOK1 / Fold change vs veh, TAOK1 / RFU, ACBD3 / Fold change vs veh, ACBD3 / RFU, TMA16 / Fold change vs veh, TMA16 / RFU, RWDD3 / Fold change vs veh, RWDD3 / RFU, BCAT1 / Fold change vs veh, BCAT1 / RFU, EDEM3 / Fold change vs veh, EDEM3 / RFU, TMEM33 / Fold change vs veh, TMEM33 / RFU, WDR75 / Fold change vs veh, WDR75 / RFU, AHCTF1 / Fold change vs veh, AHCTF1 / RFU, TFRC / Fold change vs veh, TFRC / RFU, ZDHHC17 / Fold change vs veh, ZDHHC17 / RFU, NOM1 / Fold change vs veh, NOM1 / RFU, ARL8B / Fold change vs veh, ARL8B / RFU, ZBTB11 / Fold change vs veh, ZBTB11 / RFU, TAMM41 / Fold change vs veh, TAMM41 / RFU, KIAA1704 /// LOC100996395 / Fold change vs veh, KIAA1704 /// LOC100996395 / RFU, ING1 / Fold change vs veh, ING1 / RFU, TRMT61B / Fold change vs veh, TRMT61B / RFU, FUBP3 / Fold change vs veh, FUBP3 / RFU, TP53 / Fold change vs veh, TP53 / RFU, TNKS2 / Fold change vs veh, TNKS2 / RFU, ZFP14 / Fold change vs veh, ZFP14 / RFU, ACTR2 / Fold change vs veh, ACTR2 / RFU, PPP3R1 / Fold change vs veh, PPP3R1 / RFU, PIK3R1 / Fold change vs veh, PIK3R1 / RFU, HNRNPA1 / Fold change vs veh, HNRNPA1 / RFU, RNF170 / Fold change vs veh, RNF170 / RFU, ZNF28 / Fold change vs veh, ZNF28 / RFU, RNGTT / Fold change vs veh, RNGTT / RFU, OGT / Fold change vs veh, OGT / RFU, BRD1 / Fold change vs veh, BRD1 / RFU, MARS / Fold change vs veh, MARS / RFU, ZNF655 / Fold change vs veh, ZNF655 / RFU, FAHD1 / Fold change vs veh, FAHD1 / RFU, BDP1 / Fold change vs veh, BDP1 / RFU, LRRCC1 / Fold change vs veh, LRRCC1 / RFU, ARID1A / Fold change vs veh, ARID1A / RFU, ZNF146 / Fold change vs veh, ZNF146 / RFU, ZNF330 / Fold change vs veh, ZNF330 / RFU, GPN3 / Fold change vs veh, GPN3 / RFU, C9orf123 / Fold change vs veh, C9orf123 / RFU, N4BP2L2 / Fold change vs veh, N4BP2L2 / RFU, ARFIP1 / Fold change vs veh, ARFIP1 / RFU, FAM179B / Fold change vs veh, FAM179B / RFU, BCL10 / Fold change vs veh, BCL10 / RFU, UHRF1BP1L / Fold change vs veh, UHRF1BP1L / RFU, BET1 / Fold change vs veh, BET1 / RFU, CNOT2 / Fold change vs veh, CNOT2 / RFU, ZNF268 / Fold change vs veh, ZNF268 / Fold change vs veh, ZNF507 / RFU, DGCR2 / Fold change vs veh, DGCR2 / RFU, WDSUB1 / Fold change vs veh, WDSUB1 / Fold change vs veh, HSP90B1 /// MIR3652 / RFU, ADSS / Fold change vs veh, ADSS / RFU, GK / Fold change vs veh, GK / RFU, ZNF148 / Fold change vs veh, ZNF148 / RFU, TAF9 / Fold change vs veh, TAF9 / RFU, SLC1A5 / Fold change vs veh, SLC1A5 / RFU, SLMO2 / Fold change vs veh, SLMO2 / RFU, ABCC4 / Fold change vs veh, ABCC4 / RFU, LOC101060439 /// RAP1B / Fold change vs veh, LOC101060439 /// RAP1B / RFU, RFX7 / Fold change vs veh, RFX7 / RFU, GTPBP10 / Fold change vs veh, GTPBP10 / RFU, CNEP1R1 / Fold change vs veh, CNEP1R1 / RFU, BIVM-ERCC5 /// ERCC5 / Fold change vs veh, BIVM-ERCC5 /// ERCC5 / RFU, ILF3 / Fold change vs veh, ILF3 / RFU 11762660_at / Fold change /veh 11762660_at / RFU VCAN (11757783_s_at) / Fold change /veh VCAN (11757783_s_at) / RFU DDX43 (11728927_at) / Fold change /veh DDX43 (11728927_at) / RFU KRT8 (11758188_x_at) / Fold change /veh KRT8 (11758188_x_at) / RFU NKD1 (11759106_at) / Fold change /veh NKD1 (11759106_at) / RFU SRD5A1 (11742802_a_at) / Fold change /veh SRD5A1 (11742802_a_at) / RFU TPSAB1 /// TPSB2 (11721975_s_at) / Fold change /veh TPSAB1 /// TPSB2 (11721975_s_at) / RFU GSTM3 (11746129_a_at) / Fold change /veh GSTM3 (11746129_a_at) / RFU IL23R (11737362_x_at) / Fold change /veh IL23R (11737362_x_at) / RFU TMEM51 (11727254_a_at) / Fold change /veh TMEM51 (11727254_a_at) / RFU PIWIL2 (11732686_x_at) / Fold change /veh PIWIL2 (11732686_x_at) / RFU ORM1 (11744905_x_at) / Fold change /veh ORM1 (11744905_x_at) / RFU CCDC152 (11743942_at) / Fold change /veh CCDC152 (11743942_at) / RFU ECM1 (11717891_a_at) / Fold change /veh ECM1 (11717891_a_at) / RFU IL23R (11748794_a_at) / Fold change /veh IL23R (11748794_a_at) / RFU TNFAIP8L3 (11732012_x_at) / Fold change /veh TNFAIP8L3 (11732012_x_at) / RFU MBOAT4 (11741988_at) / Fold change /veh MBOAT4 (11741988_at) / RFU 11764193_at / Fold change /veh 11764193_at / RFU TMEM53 (11763286_at) / Fold change /veh TMEM53 (11763286_at) / RFU MAGEB2 (11727129_at) / Fold change /veh MAGEB2 (11727129_at) / RFU TMEM200A (11744735_a_at) / Fold change /veh TMEM200A (11744735_a_at) / RFU CCDC152 (11751479_a_at) / Fold change /veh CCDC152 (11751479_a_at) / RFU FAM211A (11726209_a_at) / Fold change /veh FAM211A (11726209_a_at) / RFU RGS16 (11746705_a_at) / Fold change /veh RGS16 (11746705_a_at) / RFU VCAN (11755009_s_at) / Fold change /veh VCAN (11755009_s_at) / RFU RHOB (11743442_s_at) / Fold change /veh RHOB (11743442_s_at) / RFU RGS16 (11720943_a_at) / Fold change /veh RGS16 (11720943_a_at) / RFU RGS16 (11720944_at) / Fold change /veh RGS16 (11720944_at) / RFU, VPS4B / Fold change vs veh, VPS4B / RFU, CREB1 / Fold change vs veh, CREB1 / RFU, DNAJC13 / Fold change vs veh, DNAJC13 / RFU, GNAQ / Fold change vs veh, GNAQ / RFU, CDK5R1 / Fold change vs veh, CDK5R1 / RFU, ZRANB3 / Fold change vs veh, ZRANB3 / RFU, CUL4A / Fold change vs veh, CUL4A / RFU, CCNY / Fold change vs veh, CCNY / RFU, UFL1 / Fold change vs veh, UFL1 / RFU, COG3 / Fold change vs veh, COG3 / RFU, DIAPH2 / Fold change vs veh, DIAPH2 / RFU, SKA2 / Fold change vs veh, SKA2 / RFU, AFF3 / Fold change vs veh, AFF3 / RFU, LMF1 / Fold change vs veh, LMF1 / RFU, IPO11 / Fold change vs veh, IPO11 / RFU, DFFB / Fold change vs veh, DFFB / RFU, FOXP1 / Fold change vs veh, FOXP1 / RFU, CARD8 / Fold change vs veh, CARD8 / RFU, STRN3 / Fold change vs veh, STRN3 / RFU, ADK / Fold change vs veh, ADK / RFU, RASSF2 / Fold change vs veh, RASSF2 / RFU, WIPF1 / Fold change vs veh, WIPF1 / RFU, LARP1B / Fold change vs veh, LARP1B / RFU, RASA1 / Fold change vs veh, RASA1 / RFU, RB1 / Fold change vs veh, RB1 / RFU, PPFIA1 / Fold change vs veh, PPFIA1 / RFU, MAT2A / Fold change vs veh, MAT2A / RFU, CCT5 / Fold change vs veh, CCT5 / RFU, WDR92 / Fold change vs veh, WDR92 / RFU, CUX1 / Fold change vs veh, CUX1 / RFU, TTC7A / Fold change vs veh, TTC7A / RFU, TMEM135 / Fold change vs veh, TMEM135 / RFU, DEPTOR / Fold change vs veh, DEPTOR / RFU, CPM / Fold change vs veh, CPM / RFU, DNAJB6 / Fold change vs veh, DNAJB6 / RFU, CACNA2D3 / Fold change vs veh, CACNA2D3 / RFU, DTX4 / Fold change vs veh, DTX4 / RFU, TFCP2 / Fold change vs veh, TFCP2 / RFU, GMCL1 /// GMCL1P1 / Fold change vs veh, GMCL1 /// GMCL1P1 / RFU, AEBP2 / Fold change vs veh, AEBP2 / RFU, SNHG1 /// SNORD22 /// SNORD25 /// SNORD26 /// SNORD27 /// SNORD28 /// SNORD29 /// SNORD31 / Fold change vs veh, SNHG1 /// SNORD22 /// SNORD25 /// SNORD26 /// SNORD27 /// SNORD28 /// SNORD29 /// SNORD31 / Fold change (Aza/veh), C12orf56 (ProbeSet 11735607_a_at) / Fold change (ACY-1035/veh), C12orf56 (ProbeSet 11735607_a_at) / Fold change (Aza/veh), FGFR1OP (ProbeSet 11751329_s_at) / Fold change (ACY-1035/veh), FGFR1OP (ProbeSet 11751329_s_at) / Fold change (Aza/veh), VPS36 (ProbeSet 11739960_a_at) / Fold change (ACY-1035/veh), VPS36 (ProbeSet 11739960_a_at) / RFU SYPL1 (11715823_x_at) / Fold change /veh SYPL1 (11715823_x_at) / RFU IGFBP7 (11715501_s_at) / Fold change /veh IGFBP7 (11715501_s_at) / RFU REEP3 (11722064_at) / Fold change /veh REEP3 (11722064_at) / RFU IGLL1 (11728026_x_at) / Fold change /veh IGLL1 (11728026_x_at): dose or concentration left out as unconfirmed
Settings: MV-4-11 cells, 48 hours

SMILES: Nc1ncn([C@@H]2O[C@H](CO)[C@@H](O)[C@H]2O)c(=O)n1 [azacitidine]
- Fold change /veh MAGEB2 (11727129_at): 2.40
